What was measured:
Type in all cases: cell-based
[1] = molecular target: T1, Mineralocorticoid Receptor (MR) (Homo sapiens, UniProt P08235); assay: Functional assay of mineralocorticoid receptor antagonism (Gal4-MR mammalian two hybrid luciferase reporter, 293T cells); conditions: antagonism of aldosterone (0.4 nM)-induced MR activity
T1 construct: expressed in transfected cells; host or cells: 293T cells (ATCC)
T1 sequence (P08235 672-984): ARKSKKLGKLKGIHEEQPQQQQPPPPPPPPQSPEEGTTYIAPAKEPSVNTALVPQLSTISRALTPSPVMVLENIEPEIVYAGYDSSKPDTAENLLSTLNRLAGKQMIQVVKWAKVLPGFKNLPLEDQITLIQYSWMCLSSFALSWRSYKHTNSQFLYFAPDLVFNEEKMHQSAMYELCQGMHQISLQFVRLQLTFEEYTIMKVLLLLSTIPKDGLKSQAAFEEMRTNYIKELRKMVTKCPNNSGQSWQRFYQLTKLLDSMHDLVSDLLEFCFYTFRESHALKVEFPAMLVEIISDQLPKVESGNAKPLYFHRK
Description: The MR antagonist activity of the compounds is determined in a mammalian two hybrid reporter system. The N-terminus of MR (MR-NT, sequence coding amino acid 1-597) is fused to the activation domain of the VP16 gene. The ligand binding domain of MR (MR-LBD, sequence encoding amino acid 672-984) is fused to the DNA binding domain of the yeast Gal4 gene. The MR gene is cloned from a human kidney cDNA library with PCR.
The assay is performed in 384 well plates. Briefly, 293T cells (ATCC) are transfected with expression vectors for Gal-4-MR-LBD and VP16-MR NT, and a luciferase reporter vector containing Gal4 binding sequence (pG5-Luc). Cells are plated in 384 well plates immediately after transfection (approximately 3×10^4 cells/well in 50 μl medium). The medium is supplemented with 3% charcoal-dextran treated fetal bovine serum (Hyclone). Twenty four hours after transfection, compounds prepared in DMSO are transferred to the cells. The cells are then stimulated with 0.4 nM final concentration of aldosterone (Acros) and incubated at 37° C. for another 24 hours before the luciferase activity is assayed with 20 μl of Bright-Glo (Promega) using a luminometer (CLIPR). The expression of luciferase is used as an indicator of aldosterone-induced MR trans-activation. Each compound is tested in duplicates with 12-concentration titration. IC50 values (defined as the concentration of test compound required to antagonize 50% of aldosterone-induced MR activity) are determined from the dose-response curve.

[2] = molecular target: T2, Progesterone Receptor (PR) (Homo sapiens, UniProt P06401); assay: Functional assay of progesterone receptor antagonism (progesterone-induced alkaline phosphatase activity in T-47D cells); conditions: antagonism of progesterone (3 nM)-induced PR activity, read-out: PR-T47D IC50
T2 sequence (P06401 679-933 limits assumed): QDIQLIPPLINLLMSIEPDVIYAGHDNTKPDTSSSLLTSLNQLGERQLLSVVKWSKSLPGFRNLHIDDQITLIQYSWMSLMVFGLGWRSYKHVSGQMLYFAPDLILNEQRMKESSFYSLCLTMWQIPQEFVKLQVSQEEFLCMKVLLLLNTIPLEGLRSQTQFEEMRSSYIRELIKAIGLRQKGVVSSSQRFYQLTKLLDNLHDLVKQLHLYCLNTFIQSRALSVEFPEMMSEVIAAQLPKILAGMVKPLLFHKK
Description: The PR antagonist activity of the compounds is determined by progesterone-induced alkaline phosphatase activity in the T-47D cell line (ATCC). In the T-47D breast cancer cells, progesterone specifically induces de novo synthesis of a membrane-associated alkaline phosphatase enzyme in a time and dose-dependent manner (Di Lorenzo et al., Cancer Research, 51: 4470-4475 (1991)). The alkaline phosphatase enzymatic activity can be measured with a chemiluminescent substrate, such as CSPD® (Applied Biosystems).
The assay is performed in 384 well plates. Briefly, T-47D cells are plated in 384 well plates at a density of approximately 2.5×10^4 cells/well in 50 μl medium supplemented with 10% fetal bovine serum. Twenty four hours later, the medium is aspirated. New medium that is free of phenol red and serum is added to the cells. Compounds prepared in DMSO are transferred to the cells. The cells are then stimulated with 3 nM final concentration of progesterone (Sigma) and incubated at 37° C. for another 24 hours before the alkaline phosphatase is assayed with 25 μl of CSPD® (Applied Biosystems) using a luminometer (CLIPR). The expression of alkaline phosphatase is used as an indicator of progesterone-induced PR trans-activation. Each compound is tested in duplicates with a 12-concentration titration. IC50 values (defined as the concentration of test compound required to antagonize 50% of progesterone-induced PR activity) are determined from the dose-response curve.

[3] = molecular target: T3, Glucocorticoid Receptor (GR) (Homo sapiens, UniProt P04150); assay: Functional assay of glucocorticoid receptor antagonism (Gal4-GR-LBD luciferase reporter, COS-7 cells); conditions: antagonism of dexamethasone (10 nM)-induced GR activity
T3 construct: expressed in transfected cells; host or cells: COS-7 cells (ATCC)
T3 sequence (P04150 541-778 isoform P04150-3): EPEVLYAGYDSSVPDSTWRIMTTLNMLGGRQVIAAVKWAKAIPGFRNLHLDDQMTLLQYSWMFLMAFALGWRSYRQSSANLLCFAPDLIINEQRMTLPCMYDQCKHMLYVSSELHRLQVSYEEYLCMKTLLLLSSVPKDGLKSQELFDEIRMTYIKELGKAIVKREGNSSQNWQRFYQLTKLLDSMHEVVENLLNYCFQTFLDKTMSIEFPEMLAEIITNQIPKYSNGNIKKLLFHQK
Description: The GR antagonist activity of the compounds is determined in a mammalian two hybrid reporter system. The ligand binding domain of GR (GR-LBD, sequence encoding amino acid 541-778) is fused to the DNA binding domain of the yeast Gal4 gene. The GR gene is cloned from a human lung cDNA library with PCR.
The assay is performed in 384 well plates: COS-7 cells (ATCC) are transfected with expression vectors for Gal-4-GR-LBD and a luciferase reporter vector containing Gal4 binding sequence (pG5-Luc). Cells are plated in 384 well plates immediately after transfection (approximately 8000 cells/well in 50 μl medium). The medium is supplemented with 3% charcoal-dextran treated fetal bovine serum (Hyclone). Twenty four hours after transfection, compounds prepared in DMSO are transferred to the cells. The cells are then stimulated with 10 nM final concentration of dexamethasone (Sigma) and incubated at 37° C. for another 24 hours before the luciferase activity is assayed with 20 μl of Bright-Glo (Promega) using a luminometer (CLIPR). The expression of luciferase is used as an indicator of dexamethasone-induced GR trans-activation. Each compound is tested in duplicates with a 12-concentration titration. IC50 values (defined as the concentration of test compound required to antagonize 50% of dexamethasone-induced GR activity) are determined from the dose-response curve.

Compound | IC50 [1] | IC50 [2] | IC50 [3]
O=C1CCCC2(C(F)(F)F)OC3(CN12)c1ccccc1C=Cc1ccccc13 (stereo not drawn) [FRS-11] | < 0.1 µM | > 10 µM | 1 to 10 µM
O=C1CCC2(c3ccc(F)cc3)OC3(CN12)c1ccccc1C=Cc1ccccc13 (stereo not drawn) [FRS-3] | 0.1 to 1 µM | > 10 µM | > 10 µM
Oc1ccc(C2=NCC3(O2)c2ccccc2C=Cc2ccccc23)cc1 [OXS-1] | 0.1 to 1 µM | > 10 µM | > 10 µM
O=C1CCC2(c3ccccc3)OC3(CN12)c1ccccc1C=Cc1ccccc13 (stereo not drawn) [FRS-2] | 0.1 to 1 µM | > 10 µM | > 10 µM
CC12CCC(=O)N1CC1(O2)c2ccccc2CCc2ccccc21 (stereo not drawn) [FRS-13] | < 0.1 µM | > 10 µM | > 10 µM
CC12CCC(=O)N1CC1(O2)c2ccccc2CCc2ccccc21 (single isomer, unassigned) [FRS-13 (Chiral Synthesis)] | < 0.1 µM | > 10 µM | > 10 µM
O=C1CCC2(c3cccs3)OC3(CN12)c1ccccc1C=Cc1ccccc13 (stereo not drawn) [FRS-8] | < 0.1 µM | 1 to 10 µM | 1 to 10 µM
O=C1CCC2(C3CC3)OC3(CN12)c1ccccc1C=Cc1ccccc13 (stereo not drawn) [FRS-10] | < 0.1 µM | > 10 µM | 1 to 10 µM
CC12CCCC(=O)N1CC1(O2)c2ccccc2CCc2ccccc21 (stereo not drawn) [FRS-14] | 0.1 to 1 µM | 1 to 10 µM | > 10 µM
COc1ccc(C23CCC(=O)N2CC2(O3)c3ccccc3C=Cc3ccccc32)cc1 (stereo not drawn) [FRS-5] | 0.1 to 1 µM | > 10 µM | > 10 µM

Other lines, results leading:

IC50 [1] | IC50 [2] | IC50 [3] | Compound
0.1 to 1 µM | 0.1 to 1 µM | > 10 µM | CC(=O)N1CC2(OC13CCCCC3)c1ccccc1C=Cc1ccccc12 [SOXS-6]
0.1 to 1 µM | 1 to 10 µM | 1 to 10 µM | CC(=O)N1CC2(OC1(C)C)c1ccccc1C=Cc1ccccc12 [SOXS-3]
< 0.1 µM | > 10 µM | 1 to 10 µM | CC12CCC(=O)N1CC1(O2)c2ccccc2C=Cc2ccccc21 (single isomer, unassigned) [FRS-1 (Chiral Synthesis)]
1 to 10 µM | 1 to 10 µM | > 10 µM | CC1(C)OC2(CN1C(=O)Nc1ccc(F)cc1F)c1ccccc1C=Cc1ccccc12 [SOXS-1]
< 0.1 µM | 1 to 10 µM | 1 to 10 µM | CCCC12CCC(=O)N1CC1(O2)c2ccccc2C=Cc2ccccc21 (stereo not drawn) [FRS-9]
0.1 to 1 µM | 1 to 10 µM | > 10 µM | CC12CCCC(=O)N1CC1(O2)c2ccccc2C=Cc2ccccc21 (stereo not drawn) [FRS-4]
< 0.1 µM | 0.1 to 1 µM | > 10 µM | CC1(C)OC2(CN1S(C)(=O)=O)c1ccccc1C=Cc1ccccc12 [SOXS-4]
< 0.1 µM | > 10 µM | > 10 µM | CC12CCC(=O)N1CC1(O2)c2ccccc2C=Cc2ccccc21 (stereo not drawn) [FRS-1]
0.1 to 1 µM | > 10 µM | > 10 µM | CC12CCCCC(=O)N1CC1(O2)c2ccccc2C=Cc2ccccc21 (stereo not drawn) [FRS-6]

— patent US7807841B2, “Spiro-containing compounds and compositions as modulators of steroid hormone nuclear receptors” (IRM LLC, priority 2005, dated 2010)
